Assay results as given in paper PMC11666850, “Development and evaluation of deuterated [^18F]JHU94620 isotopologues for the non-invasive assessment of the cannabinoid type 2 receptor in brain” (EJNMMI Radiopharmacy and Chemistry, 2024).
Several values for one entry are separate records, joined by “and”; a condition that tells them apart may be missing. Identical values can stand only once.

Columns and labels:
CB2R [1] = molecular target: T1, CB2R (Rattus norvegicus, UniProt Q9QZN9); format: in vivo; conditions: male, Wistar, rat, in vivo
T1 construct: from tissue; host or cells: rat spleen: cryosections in vitro, and spleen of living Wistar rats in PET
T1 sequence (Q9QZN9 1-360): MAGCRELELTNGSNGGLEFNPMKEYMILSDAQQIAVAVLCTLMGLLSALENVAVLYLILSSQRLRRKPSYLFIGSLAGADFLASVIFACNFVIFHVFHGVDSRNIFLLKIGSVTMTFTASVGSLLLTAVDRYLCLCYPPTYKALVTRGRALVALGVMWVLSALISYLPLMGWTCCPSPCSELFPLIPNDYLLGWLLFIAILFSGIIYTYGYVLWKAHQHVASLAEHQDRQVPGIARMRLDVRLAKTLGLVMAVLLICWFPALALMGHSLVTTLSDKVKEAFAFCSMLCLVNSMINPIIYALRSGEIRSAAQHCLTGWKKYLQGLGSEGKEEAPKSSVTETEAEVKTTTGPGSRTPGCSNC
Procedure: The dynamic biodistribution of the radiotracer in the lower body of rats was assessed by small animal PET (Nanoscan, Mediso, Hungary) over 60 min with a subsequently T1-weighted MR. Anaesthetized (2% isoflurane, carrier gas mixture of 40% air and 60% O2) male Wistar rats (body weight: 205–308 g, age: 8–10 weeks, no gender-specific differences were taken into account) were kept during imaging on a heated animal bed to sustain body temperature and were pretreated with vehicle (DMSO:Kolliphore EL:0.9% saline, 1:2:7), JHU94620-d8 (1.5 mg kg^−1 bodyweight) or with GW405833 (5 mg kg^−1 bodyweight) 5 min prior tracer application ([^18F]JHU94620-d8: 7.7–28.2 MBq, 0.4 to 3.2 nmol kg^−1 bodyweight), whereby all injections were administered intravenously. For the evaluation of the hCB2R-specific binding of the radiotracer in the brain, female Wistar rats (n = 6, 253–269 g, age: 8 month) were used carrying stereotactically injected constructs of AAV2/7-CaMKII0.4-intron-hCB2R(D80N) in the right striatum and AAV2/7-CaMKII0.4-intron-3flag-eGFP in the control/contralateral striatum (Vandeputte et al. [2011]). 21–26 MBq corresponding to 0.2 to 2.0 nmol kg^−1 bodyweight radiotracer were injected, whereas in displacement studies 5 mg kg^−1 bodyweight GW405833 was administered 20 min after the radiotracer (each n = 3). The PET scans were performed six months after the stereotactic injections of the AAV2/7-constructs.
The acquisitions were performed in normal mode and a coincidence mode 1–5. For subsequent dynamic reconstructions list mode data were sorted into sinograms (12 × 10 s, 6 × 30 s, 5 × 60 s and 10 × 300 s). The frames were reconstructed by Ordered Subset Expectation Maximization applied to 3D (OSEM3D) sinograms corrected for decay and attenuation (4 iterations, 6 subsets and a voxel size of 0.4 mm^3) with the Nucline software v2.01 (Mediso, Budapest, Hungary). Analyses of reconstructed studies were performed with PMOD software (v4.205, PMOD Technologies LLC, Fällanden, Switzerland) and results are expressed in standardized uptake values (SUVs) or normalized to a reference region (SUVr).

CB2R [2] = molecular target: T1, CB2R; experiment: Quantitative autoradiography, rat spleen cryosections; format: binding
Procedure: (§1) For quantitative autoradiography in different species, 10 µm cryosections from mouse, rat and piglet spleen were thawed, dried, and pre-incubated with incubation buffer for 10 min, dried under an airstream. Subsequently, the incubation buffer containing [^18F]JHU94620-d8 (59–137 GBq µmol^−1, 1.7–3.6 nM) was added alone or together with indicated concentrations of the reference compound. Additionally, to assess the non-specific binding of [^18F]JHU94620-d8 to cryosections GW405833 was added instead of the reference compound. After 90 min, cryosections were washed two times for 2 min with ice-cold 50 mM Tris HCl, pH7.4 and 10 s in ddH2O and subsequently dried under an airstream. For the calculation of the radioactivity concentration, 5 µl of five serial 1:2 dilutions of the incubation buffer with [^18F]JHU94620-d8 were air-dried on a microscopic slide. For binding studies in rat spleen cryosections by autoradiography with HLM-derived radiometabolites of [^18F]JHU94620-d8 obtained from the radiometabolite assay, the samples were added to the incubation buffer to a final activity concentration of 0.2 MBq mL^−1 and protocol was followed as described above. Subsequently, the slides were exposed to a phosphor imager plate. After scanning at high sensitivity and a 12.5 µm resolution with a CR35 Bio image plate scanner (Raytest Isotopenmessgeräte GmbH, Straubenhardt, Germany). The analyses of the autoradiographic images were performed with the AIDA 5.1 software (Elysia-Raytest, Angleur, Belgium) resulting in a resolution of 12.617 pixel × 12.616 pixel per µm^2 (1 voxel = 1592 µm^3 ≙ 1.59 10^–3 µg wet tissue) and inhibition curves were created with GraphPad Prism 9.5.1 (GraphPad Inc., La Jolla, CA).
The KD values were calculated with GraphPad Prism according to the modified Cheng-Prusoff method for homologous competitive binding studies, where the KD = Ki = IC50—[radioligand] and the Bmax = specific binding / [radioligand] / ((KD + [radioligand])) (Motulsky and Neubig [2000]), assuming a total protein content of 8.2% (1.3 10^–4 µg protein per voxel) in the spleen (Zaia et al. [2000]) or by determining the protein concentration of the cell membrane lysates using a BCA assay (Thermo Scientific, Braunschweig, Germany). The fractional occupancy defined as occupied binding sites per total binding sites is used to describe the binding fraction specifically bound to CB2R compared to unspecific binding, where [L] is the concentration of the ligand at the start of incubation.

CB2R [3] = experiment: Quantitative autoradiography, pig spleen cryosections; format: binding; conditions: blocking with 10 µM GW405833 or self-blocking
Procedure: as §1, with “The analyses of the autoradiographic images were performed with the AIDA 5.1 software (Elysia-Raytest, Angleur, Belgium) resulting in a resolution of 12.617 pixel × 12.616 pixel per µm^2 (1 voxel = 1592 µm^3 ≙ 1.59 10^–3 µg wet tissue) and inhibition curves were created with GraphPad Prism 9.5.1 (GraphPad Inc., La Jolla, CA).” left out

For `[2H]C([2H])([18F])C([2H])([2H])C([2H])([2H])C([2H])([2H])n1c(C)c(C)s/c1=N\C(=O)C1C(C)(C)C1(C)C` [[^18F]JHU94620-d8], the “SUVr(spleen-to-blood) at late time points” value (CB2R [1]) was “about 1.5”, the “spleen SUVmean at late time points” value (CB2R [1]) was “about 0.5 SUVmean” and the Kd (CB2R [2]; KD values determined by autoradiography, rat and mouse spleen (range over both species)) was 0.74 to 1.98 nM. For the same molecule, the Kd (CB2R [2]; KD, rat spleen cryosection, homologous displacement autoradiography, n = 3) was 0.74 nM, the “specific binding to CB2R” value (CB2R [2]; rat spleen cryosections, blocking with 10 µM GW405833 or self-blocking) was 48 ± 6% and 48% and the Bmax (CB2R [2]; spleen of rats) was 0.08 pmol mg^−1 protein. For the same molecule, the “specific binding to CB2R” value (CB2R [3]) was 22 ± 11%.
